Structures can show the parent of a compound that is named as a salt. Where two headings read alike, the source gives them in different places.
Experiments:
[1] = Assay of reconstituted bisantrene dihydrochloride diluted in i.v. bag, with or without 0.2-μm filter, glass vs plastic sample vials; format: physicochemical
[2] = Filtration of 40 mg/mL stock mixture, content by HPLC; format: physicochemical; details: 5-μm, 1.2-μm and 0.2-μm filters
Method: Finished vials are sealed under nitrogen and partial vacuum for storage. Storage of the vials is typically at 18° C. to 25° C.

[3] = tested on: colon 26, Lewis lung, Ridgway osteosarcoma, B16, Lieberman plasma cell, P388 or L1210 cancer cells; details: cited from earlier work
tumor cells = details: cited from earlier work
[4] = high doses; cited from earlier work
[5] = tested on: P-388 leukemia and B-16 melanoma; details: mouse, in vivo; cited from earlier work
Human tumor cells = details: cited from earlier work
[6] = cited from earlier work
L-1210 leukemia cells = details: cited from earlier work
calf thymus DNA = details: in vitro; cited from earlier work
Human Platelets = details: cited from earlier work
[7] = in vivo; cited from earlier work
plasma proteins = details: cited from earlier work
[8] = cited from earlier work; remark: listed apart in the source
[9] = cited from earlier work; remark: listed apart in the source
[10] = cited from earlier work; remark: listed apart in the source
[11] = in vivo; cited from earlier work; remark: listed apart in the source
DNA = details: hypoxic conditions; cited from earlier work
[12] = in vivo; cited from earlier work; remark: listed apart in the source
[13] = tested on: hepatic microsomal enzymes; details: in vitro; specific metabolites not identified; cited from earlier work
[14] = cited from earlier work; remark: listed apart in the source

SMILES: C(=N\NC1=NCCN1)/c1c2ccccc2c(/C=N/NC2=NCCN2)c2ccccc12 [bisantrene, 9,10-anthracenedicarboxaldehyde-bis [(4,5-dihydro-1H-imidazole-2-yl) hydrazine] dihydrochloride]
- assay after passage through 0.2-μm filter versus i.v. bag assay ([1]; sample collected in glass vials): approximately 5 % lower
- assay after passage through 0.2-μm filter versus i.v. bag assay ([1]; sample collected in plastic vials): approximately matched
- assay of fully diluted drug in the i.v. bag versus reconstituted drug in the finished vial ([1]; samples collected in glass vials): approximately 5 % lower
- assay of fully diluted drug in the i.v. bag versus reconstituted drug in the finished vial ([1]; samples collected in plastic vials): no reduction
- effect of removal of particulates on content in solution [2]: does not diminish
- activity in cancer models ([3]; intravenously (i.v.), intraperitoneally (i.p.), or subcutaneously (s.c.)): effective
- activity in cancer models ([3]; orally): inactive
- activity in clonogenic assays (tumor cells; breast, small cell lung, large cell lung, squamous cell lung, ovarian, pancreatic, renal, adrenal, head and neck, sarcoma, gastric, lymphoma and melanoma tumor cells): Activity
- cross resistance with Adriamycin and mitoxantrone (tumor cells): lack of cross resistance
- activity in clonogenic assays (tumor cells; colorectal cancer): not in colorectal cancer
- toxicities observed [4]: leukopenia, anorexia, diarrhea, injection site necrosis, enterocolitis, muscle degeneration, and pulmonary edema
- antitumor activity [5]: antitumor activity
- sensitivity of human tumor cells (Human tumor cells; breast, ovarian, renal, small cell and non-small cell lung cancer, lymphoma, acute myelogenous leukemia, melanoma, gastric, adrenal, head and neck cancer): sensitive
- activity in human colon cancer (Human tumor cells; tested in vitro): inactive
- activity in refractory malignant melanoma ([6]; Phase II): inactive
- activity in phase I clinical trials ([6]; hepatocellular cancer and hypernephroma (one patient each)): showed activity
- activity in phase I clinical trials ([6]; lymphoma, myeloma, melanoma, renal cancer, tumors of the bladder and lung): showed activity
- activity in Phase II clinical trials ([6]; patients with metastatic breast cancer): active
- activity in human colon cancer ([6]; tested in vivo (Phase II, advanced colorectal cancer)): inactive
- activity in phase I clinical trials ([6]; two other hypernephroma patients, five-day schedule): activity was also observed
- DNA strand breaks typical of inhibition of DNA topoisomerase II enzymes (L-1210 leukemia cells): induce protein-associated DNA strand breaks
- DNA supercoiling indicative of DNA intercalation (L-1210 leukemia cells): induce altered DNA supercoiling
- shape of DNA dissociation curves (calf thymus DNA): biphasic
- effect on platelet aggregation (Human Platelets): inhibit platelet aggregation
- cardiotoxicity [7]: not cardiotoxic
- bound to plasma proteins (plasma proteins): More than 95%
- dose excreted in the urine ([8]; in vivo): Less than 7%
- route by which the majority of the drug is eliminated ([8]; in vivo): hepatobiliary route
- area under the plasma concentration×time curve ([8]; intravenous dose 260 mg/m^2): 4400 µg·h/mL
- area under the plasma concentration×time curve ([8]; intravenous dose 340 mg/m^2): 5700 µg·h/mL
- beta phase of elimination ([8]; plasma): approximately 1.5 hours
- initial distributive phase of elimination ([8]; plasma): 6 min
- maximally tolerated dose ([9]; daily×5, repeat every 4 week (Spiegel et al. 1982)): 80 mg/m^2
- maximally tolerated dose ([9]; monthly (every 3-4 week) (Von Hoff et al. 1981b)): 260 mg/m^2
- maximally tolerated dose ([9]; monthly (every 3-4 week), patients with poor bone marrow reserve): 240 mg/mg^2
- maximally tolerated dose ([9]; weekly×3 (Alberts et al. 1982)): 200 mg/m^2
- maximally tolerated dose ([9]; weekly×3, patients with poor bone marrow reserve (Alberts et al. 1982)): 150 mg/mg^2
- maximally tolerated dose ([9]; weekly×3, repeat every 4-5 week (Yap et al. 1982)): 150 mg/m^2
- toxicity for which the Phase II study was terminated ([10]; heavily pretreated patients with metastatic breast cancer): significant local toxicity
- alopecia (hair loss) compared with doxorubicin ([10]; human, in vivo): less intense
- anemia and cumulative myelosuppressive toxic effects ([10]; human, in vivo): not encountered
- cardiotoxicity in the clinic compared with other agents in its class ([10]; human, in vivo): less cardiotoxicity
- electrocardiographic changes while receiving the drug ([10]; human, in vivo): No patients experienced electrocardiographic changes
- fever ([10]; human, in vivo): mild fever
- major dose-limiting toxic effect ([10]; human, in vivo): leukopenia
- nausea or vomiting ([10]; human, in vivo): very little nausea or vomiting
- patients reporting malaise ([10]; human, in vivo): up to one-half of patients
- patients with anaphylactoid reactions following infusion ([10]; human, in vivo): Up to 10%
- phlebitis along peripheral veins used for drug infusion ([10]; human, in vivo): severe phlebitis
- radioangiocardiographic monitoring of cardiac function ([10]; human, in vivo): no decrease in ejection fraction
- recovery from myelosuppression ([10]; human, in vivo): ≤ 19 days
- thrombocytopenia ([10]; human, in vivo): mild
- nadir for myelosuppression ([10]; schedule of every 3 to 4 weeks): 9 days
- precipitation of drug in the body [11]: precipitates in the body have been observed
- cytotoxicity and DNA strand breaks (DNA): reduced
- brain levels [12]: extremely low
- distribution to lymph nodes and bone marrow [12]: did distribute
- tissues with the highest concentration (in descending order) [12]: kidney, liver, gallbladder, spleen, lung, and heart
- metabolism by hepatic microsomal enzymes [13]: substrate

SMILES: O=C([O-])O.[Na+] [sodium bicarbonate]
- effect of local injection on bisantrene extravasation necrosis [14]: blocked

From patent US20210379021A1 (Race Oncology Ltd., priority 2018, published 2021)
